Laboratory results published in US8329416B2, “Stabilized standards for busulfan immunoassay” (Saladax Biomedical Inc., priority 2008, dated 2012).
Read-outs that look alike come from different tables or passages of the source.

Experiments:
antibody to busulfan = assay: direct competitive ELISA for busulfan (busulfan-HRP conjugate, antibody-coated plate); type: binding
Procedure: For the purpose of determining amide of formula II equivalents to busulfan of formula I and assaying busulfan with the amide standards by Enzyme-Linked Immunosorbent Assay (ELISA) method, polystyrene microtiter plates optimized for protein binding and containing 96 well per plate were used. Each well was coated with an antibody to busulfan produced as described in U.S. Pat. No. 7,238,024 Example 7, by adding 100 μL of antibody at 7.5 μg/mL in 0.05M sodium bicarbonate, pH=9.6 and then were blocked with 400 μL of 5% sucrose, 0.2% sodium caseinate solution for 30 minutes at room temperature. After removal of the post-coat solution the plates dried at 37° C. overnight.
The cross-reactivity of the amide was determined in a direct competitive Enzyme-Linked Immunosorbent Assay (ELISA) for busulfan. This method for measuring busulfan concentrations was performed with the microtiter plates that were sensitized with busulfan antibody described in Example 3. The amide stock solution at 6 mg/mL DMF was serially diluted 5000 ng/mL and 500 ng/mL in a buffer comprising 0.02 M sodium phosphate, 0.15 M NaCl, 0.1% BSA, 0.01% Thimerosal, pH 7.2. To perform the assay 30 μL of busulfan standards from Example 1, and 30 μL of amide of formula II dilutions were pre-diluted in a 96-well plate by the addition of 180 μL of sample pre-dilution buffer consisting of 0.02 M sodium phosphate, 0.15 M NaCl, 0.5% Dextran Sulfate, 0.01% Thimerosal, pH 7.2. 50 μL of all prediluted samples were added to the antibody coated microtiter plate of Example 3. After addition of the samples 50 μL of a busulfan-HRP conjugate at 100 ng/mL in a buffer comprising to 0.02 M sodium phosphate, 0.15 M NaCl, 0.2% BSA, 0.1% ANS (8-anilino-1-naphthalene sulfonic acid), 15 ppm ProClin® Preservative 300 was added. During the following 10 minute incubation (R.T., with shaking) there is a competition between sample (busulfan or amide) and busulfan-HRP for binding with the antibody in the well. Following this incubation the wells of the plate were washed three times with 0.02 M TRIS, 0.9% NaCl, 0.5% polyethylene glycol sorbitan monooleate TWEEN® 80 and 0.001% Thimerosal, pH 7.8 to remove any material that was not bound. To detect the amount of busulfan-HRP bound to the busulfan antibody in the wells, 100 μL of TMB (TMB Liquid Substrate) a substrate for HRP was added. To develop a measurable color in the wells there was a 10 second incubation (R.T., with shaking). Following the incubation 50 μL of stop solution comprising 1.5% sodium fluoride in di H2O was added to each well to stop the color development and after 10 seconds of shaking the absorbance was determined at 650 nm with a 96-well plate reader. The amount of busulfan-HRP in a well was proportional to the absorbance measured and inversely proportional to the amount of busulfan of formulated or amide of formulated in the sample. The absorbance of the color in the wells containing busulfan was compared to that with no busulfan analyte and a standard curve was generated. […] The cross-reactivity was used to determine the concentration of amide necessary to produce a calibration curve equivalent to that of busulfan (Example 6).
Using the busulfan antibody plates (Example 3) in a direct competitive Enzyme-Linked Immunosorbent Assay (ELISA) for busulfan described in Example 4, the GC-MS verified busulfan calibrators (Example 1) were used to generate a curve from 75 ng/mL to 2000 ng/mL and the amide calibrators were read off this standard curve as unknown samples. […] The X axis represents the verified busulfan concentration and the Y axis is the amide standards expressed as busulfan equivalence factor (amide concentration value x 0.107=busulfan equivalence factor e.g. 1410 ng/mL amide x 0.107=150 ng/mL busulfan equivalence).

[1] = tested on: antibodies specific for busulfan; assay: busulfan immunoassay of U.S. Pat. No. 7,148,024; type: binding; conditions: across the entire dose response curve
From the text: In accordance with a preferred embodiment of this invention, a competitive assay is provided utilizing the reagents and procedure disclosed in U.S. Pat. No. 7,148,024, whose disclosure is incorporated by reference In this preferred procedure, the preferred procedure as set forth in U.S. Pat. No. 7,148,024, utilized in its method antibodies produced from conjugates of an immunogenic polyamine polymer with a compound of the formula III-A:
[drawing 4] • wherein A′ is lower alkylene or lower alkenylene; • X′, Y, X, p and z are as above or mixtures thereof.
The fact that known concentrations of the amide of formula II can be calibrated with known concentrations of busulfan by means of a calibration assay can be seen from FIG. 3. […] These measured results are plotted against their relative concentrations. […] The amount or concentration of busulfan can be determined from the measured amount or concentration standards containing the amide of formula II by multiplying the measured results obtained from these amide standards by previously determined calibration factor which in the case of FIG. 3 is 0.107. In this manner one obtains the amount or concentration of busulfan in the samples based on the measured results with respect to the amide.

[2] = stability tests of amide of formula II standards in solution; type: physicochemical; conditions: for time stable: solutions 590 ng/ml to 4720 ng/ml
[3] = tested on: antibodies specific for busulfan; conditions: antibodies from immunogens of formulae III-A and III-B; cited from earlier work
[4] = decomposition of busulfan standards in aqueous solution over time; type: physicochemical; conditions: FIG. 1
Procedure: In FIG. 1 a plurality of aqueous solutions of busulfan having varying concentrations of 100 ng/ml, 600 ng/ml, and 1200 ng/ml are incubated at room temperature. […] At room temperature for 5 days, more than 60% of the busulfan is decomposed.

[5] = cited from earlier work

SMILES: CS(=O)(=O)NCCCCNS(C)(=O)=O [amide of formula II]
- calibration factor (busulfan equivalence factor) (antibody to busulfan; FIG. 3, amide concentration x factor = busulfan equivalence): 0.107
- busulfan calibrator concentration giving the same absorbance (antibody to busulfan; amide at 705 ng/mL, FIG. 3): 75 ng/mL
- busulfan calibrator concentration giving the same absorbance (antibody to busulfan; amide at 1410 ng/mL, FIG. 3): 150 ng/mL
- busulfan calibrator concentration giving the same absorbance (antibody to busulfan; amide at 2820 ng/mL, FIG. 3): 300 ng/mL
- busulfan calibrator concentration giving the same absorbance (antibody to busulfan; amide at 5640 ng/mL, FIG. 3): 600 ng/mL
- busulfan calibrator concentration giving the same absorbance (antibody to busulfan; amide at 11280 ng/mL, FIG. 3): 200 ng/mL
- busulfan calibrator concentration giving the same absorbance (antibody to busulfan; amide at 18800 ng/mL, FIG. 3): 2000 ng/mL
- cross-reactivity (antibody to busulfan; recovery compared to busulfan standard, 5000 ng/mL amide): 10.7%
- relative cross reactivity as compared to busulfan [1]: 17.5%
- time stable ([2]; 4° C., FIG. 2): at least 4 weeks
- time stable ([2]; 45° C., FIG. 2): at least 4 weeks
- decomposition on storage ([2]; stored at 4° C. and 45° C. for at least 4 weeks, FIG. 2): no decomposition
- storage of amide solutions without significant deterioration ([2]; without any special precautions): more than one year

SMILES: O=S1(=O)CCCC1 [tetramethylene sulfone]
- reaction or binding of the busulfan antibodies with blocking metabolites [3]: do not substantially react with or bind to

SMILES: CS(=O)(=O)OCCCCOS(C)(=O)=O [busulfan]
- half-life ([4]; aqueous solution, 37° C., aqueous solutions 100, 600, 1200 ng/ml): 14 h
- busulfan decomposed ([4]; room temperature for 5 days): more than 60%
- decomposition of busulfan calibrator ([5]; 4° C., calibrator matrix spiked with busulfan): decomposes within a day
- busulfan decomposed ([5]; room temperature for 5 days): more than 60%

SMILES: O=S1(=O)CCC(O)C1 (centres unmarked) [tetrahydrothiophene-3-ol-1,1-dioxide]
- reaction or binding of the busulfan antibodies with blocking metabolites [3]: do not substantially react with or bind to

SMILES: C1CCSC1 [tetrahydrothiophene]
- reaction or binding of the busulfan antibodies with blocking metabolites [3]: do not substantially react with or bind to
